For six cell lines, relative viability results are on record in the supplement of paper PMC10307832.

What all share (experiment): relative viability (nuclei count vs DMSO), 5 days (fraction); higher = more cells survive
Compound in the experiment “VE-821 + Alpelisib”: CS(=O)(=O)c1ccc(-c2cnc(N)c(C(=O)Nc3ccccc3)n2)cc1 [VE-821] + Cc1nc(NC(=O)N2CCC[C@H]2C(N)=O)sc1-c1ccnc(C(C)(C)C(F)(F)F)c1 [Alpelisib] (partner 2 µM)
The method in brief: (§1)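 Relative viability divides the nuclei count in treated wells by that in vehicle wells. Lung cancer cell lines were seeded in 1536-well plates, dosed by pin tool the next day, and fixed and stained after 5 days in one step with final 0.05% Triton X-100, 1% formaldehyde and 1 ug/ml Hoechst. Dosing was a single drug or a fixed anchor-drug dose plus five library-drug doses (not always all listed) in √10 steps, and values are medians of duplicate plates imaged at 4×.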

Compound in the experiment “Vismodegib + Crizotinib”: CS(=O)(=O)c1ccc(C(=O)Nc2ccc(Cl)c(-c3ccccn3)c2)c(Cl)c1 [Vismodegib] + C[C@@H](Oc1cc(-c2cnn(C3CCNCC3)c2)cnc1N)c1c(Cl)ccc(F)c1Cl [Crizotinib] (partner 1 µM)
The gist of the method: as §1

Compound in the experiment “Vismodegib + Alpelisib”: CS(=O)(=O)c1ccc(C(=O)Nc2ccc(Cl)c(-c3ccccn3)c2)c(Cl)c1 [Vismodegib] + Cc1nc(NC(=O)N2CCC[C@H]2C(N)=O)sc1-c1ccnc(C(C)(C)C(F)(F)F)c1 [Alpelisib] (partner 2 µM)
The gist of the method: as §1

Compound in the experiment “Ruxolitinib + Alpelisib”: N#CC[C@H](C1CCCC1)n1cc(-c2ncnc3[nH]ccc23)cn1 [Ruxolitinib] + Cc1nc(NC(=O)N2CCC[C@H]2C(N)=O)sc1-c1ccnc(C(C)(C)C(F)(F)F)c1 [Alpelisib] (partner 2 µM)
The gist of the method:
as §1

In the case of NCI-H1563, the relative viability worked out at 0.896 with VE-821 + Alpelisib (first compound 0.08 µM); 0.933 in the experiment with VE-821 + Alpelisib (first compound 0.253 µM); 0.739 in the experiment with VE-821 + Alpelisib (first compound 0.8 µM); 0.805 in the experiment with VE-821 + Alpelisib (first compound 2.53 µM); 0.797 in the experiment with VE-821 + Alpelisib (first compound 8 µM); 0.914 in the experiment with Vismodegib + Crizotinib (first compound 0.08 µM). Further, the relative viability is 0.801 in the experiment with Vismodegib + Crizotinib (first compound 0.253 µM); 0.888 with Vismodegib + Crizotinib (first compound 0.8 µM); 0.814 with Vismodegib + Crizotinib (first compound 2.53 µM); 0.969 with Vismodegib + Crizotinib (first compound 8 µM); 0.896 with Vismodegib + Alpelisib (first compound 0.08 µM); 0.88 in the experiment with Vismodegib + Alpelisib (first compound 0.253 µM). Also, the relative viability in the experiment with Vismodegib + Alpelisib (first compound 0.8 µM) is 1.01; with Vismodegib + Alpelisib (first compound 2.53 µM) it was 0.889; with Vismodegib + Alpelisib (first compound 8 µM) it was 1.02; in the experiment with Ruxolitinib + Alpelisib (first compound 0.08 µM) it was 0.923; in the experiment with Ruxolitinib + Alpelisib (first compound 0.253 µM), 0.813; in the experiment with Ruxolitinib + Alpelisib (first compound 0.8 µM) it was 1. Besides, the relative viability was found to be 0.895 with Ruxolitinib + Alpelisib (first compound 2.53 µM) and 0.818 with Ruxolitinib + Alpelisib (first compound 8 µM).

As to NCI-H1651, the relative viability is 1.09 in the experiment with VE-821 + Alpelisib (first compound 0.08 µM); 1.08 in the experiment with VE-821 + Alpelisib (first compound 0.253 µM); 0.702 with VE-821 + Alpelisib (first compound 0.8 µM); 1.01 with VE-821 + Alpelisib (first compound 2.53 µM); 0.849 with VE-821 + Alpelisib (first compound 8 µM); 0.776 with Vismodegib + Crizotinib (first compound 0.08 µM). The relative viability with Vismodegib + Crizotinib (first compound 0.253 µM) worked out at 0.851; with Vismodegib + Crizotinib (first compound 0.8 µM), 0.871; in the experiment with Vismodegib + Crizotinib (first compound 2.53 µM), 0.825; with Vismodegib + Crizotinib (first compound 8 µM), 0.829; with Vismodegib + Alpelisib (first compound 0.08 µM) it was 0.922; with Vismodegib + Alpelisib (first compound 0.253 µM) it was 0.877. For the same cell line, the relative viability with Vismodegib + Alpelisib (first compound 0.8 µM) is 1.04; with Vismodegib + Alpelisib (first compound 2.53 µM), 0.81; in the experiment with Vismodegib + Alpelisib (first compound 8 µM) it was 1.09; with Ruxolitinib + Alpelisib (first compound 0.08 µM), 0.941; with Ruxolitinib + Alpelisib (first compound 0.253 µM), 0.875; in the experiment with Ruxolitinib + Alpelisib (first compound 0.8 µM), 1.08. Further, the results for the relative viability with Ruxolitinib + Alpelisib (first compound 2.53 µM) and in the experiment with Ruxolitinib + Alpelisib (first compound 8 µM) were 1.09 and 0.968, respectively.

Take NCI-H1666: the relative viability came out at 1.03 with VE-821 + Alpelisib (first compound 0.08 µM); 1.02 in the experiment with VE-821 + Alpelisib (first compound 0.253 µM); 0.887 with VE-821 + Alpelisib (first compound 0.8 µM); 0.926 with VE-821 + Alpelisib (first compound 2.53 µM); 0.58 with VE-821 + Alpelisib (first compound 8 µM); 0.917 with Vismodegib + Crizotinib (first compound 0.08 µM). Besides, the relative viability with Vismodegib + Crizotinib (first compound 0.253 µM) came out at 0.849; in the experiment with Vismodegib + Crizotinib (first compound 0.8 µM), 1.06; in the experiment with Vismodegib + Crizotinib (first compound 2.53 µM), 1; with Vismodegib + Crizotinib (first compound 8 µM), 0.948; in the experiment with Vismodegib + Alpelisib (first compound 0.08 µM) it was 0.913; with Vismodegib + Alpelisib (first compound 0.253 µM), 0.879. For the same cell line, the relative viability in the experiment with Vismodegib + Alpelisib (first compound 0.8 µM) was determined as 0.813; in the experiment with Vismodegib + Alpelisib (first compound 2.53 µM) it was 1.01; with Vismodegib + Alpelisib (first compound 8 µM) it was 1.13; with Ruxolitinib + Alpelisib (first compound 0.08 µM) it was 0.973; in the experiment with Ruxolitinib + Alpelisib (first compound 0.253 µM) it was 0.821; in the experiment with Ruxolitinib + Alpelisib (first compound 0.8 µM) it was 1.06. Also, the relative viability was 0.823 in the experiment with Ruxolitinib + Alpelisib (first compound 2.53 µM) and 1 with Ruxolitinib + Alpelisib (first compound 8 µM).

Consider NCI-H1703, for which the relative viability was 0.379 with VE-821 + Alpelisib (first compound 0.08 µM); 0.253 with VE-821 + Alpelisib (first compound 0.253 µM); 0.279 in the experiment with VE-821 + Alpelisib (first compound 0.8 µM); 0.343 in the experiment with VE-821 + Alpelisib (first compound 2.53 µM); 0.233 in the experiment with VE-821 + Alpelisib (first compound 8 µM); 0.54 in the experiment with Vismodegib + Crizotinib (first compound 0.08 µM). Further, the relative viability with Vismodegib + Crizotinib (first compound 0.253 µM) was 0.664; with Vismodegib + Crizotinib (first compound 0.8 µM), 0.628; with Vismodegib + Crizotinib (first compound 2.53 µM), 0.57; with Vismodegib + Crizotinib (first compound 8 µM), 0.93; with Vismodegib + Alpelisib (first compound 0.08 µM), 0.315; in the experiment with Vismodegib + Alpelisib (first compound 0.253 µM) it was 0.311. In addition, the relative viability in the experiment with Vismodegib + Alpelisib (first compound 0.8 µM) worked out at 0.407; with Vismodegib + Alpelisib (first compound 2.53 µM), 0.306; with Vismodegib + Alpelisib (first compound 8 µM) it was 0.422; with Ruxolitinib + Alpelisib (first compound 0.08 µM) it was 0.316; with Ruxolitinib + Alpelisib (first compound 0.253 µM) it was 0.343; with Ruxolitinib + Alpelisib (first compound 0.8 µM), 0.382. In addition, the values for the relative viability in the experiment with Ruxolitinib + Alpelisib (first compound 2.53 µM) and in the experiment with Ruxolitinib + Alpelisib (first compound 8 µM) were 0.19 and 0.283, respectively.

Regarding NCI-H1734, the relative viability in the experiment with VE-821 + Alpelisib (first compound 0.08 µM) is 0.804; with VE-821 + Alpelisib (first compound 0.253 µM), 0.745; with VE-821 + Alpelisib (first compound 0.8 µM), 0.468; with VE-821 + Alpelisib (first compound 2.53 µM), 0.758; in the experiment with VE-821 + Alpelisib (first compound 8 µM), 0.553; in the experiment with Vismodegib + Crizotinib (first compound 0.08 µM) it was 0.687. The relative viability came to 0.654 with Vismodegib + Crizotinib (first compound 0.253 µM); 0.762 in the experiment with Vismodegib + Crizotinib (first compound 0.8 µM); 0.62 with Vismodegib + Crizotinib (first compound 2.53 µM); 0.756 in the experiment with Vismodegib + Crizotinib (first compound 8 µM); 0.651 with Vismodegib + Alpelisib (first compound 0.08 µM); 0.586 with Vismodegib + Alpelisib (first compound 0.253 µM). In addition, the relative viability turned out to be 0.661 in the experiment with Vismodegib + Alpelisib (first compound 0.8 µM); 0.63 with Vismodegib + Alpelisib (first compound 2.53 µM); 0.719 with Vismodegib + Alpelisib (first compound 8 µM); 0.68 in the experiment with Ruxolitinib + Alpelisib (first compound 0.08 µM); 0.579 in the experiment with Ruxolitinib + Alpelisib (first compound 0.253 µM); 0.798 with Ruxolitinib + Alpelisib (first compound 0.8 µM). Besides, the values for the relative viability in the experiment with Ruxolitinib + Alpelisib (first compound 2.53 µM) and with Ruxolitinib + Alpelisib (first compound 8 µM) were 0.623 and 0.667, respectively.

Take NCI-H1755: the relative viability with VE-821 + Alpelisib (first compound 0.08 µM) worked out at 1.01; with VE-821 + Alpelisib (first compound 0.253 µM), 0.887; in the experiment with VE-821 + Alpelisib (first compound 0.8 µM), 0.622; in the experiment with VE-821 + Alpelisib (first compound 2.53 µM) it was 0.946; with VE-821 + Alpelisib (first compound 8 µM), 0.62; in the experiment with Vismodegib + Crizotinib (first compound 0.08 µM), 0.817. Moreover, the relative viability stood at 0.842 with Vismodegib + Crizotinib (first compound 0.253 µM); 0.964 in the experiment with Vismodegib + Crizotinib (first compound 0.8 µM); 0.839 in the experiment with Vismodegib + Crizotinib (first compound 2.53 µM); 0.859 with Vismodegib + Crizotinib (first compound 8 µM); 0.921 in the experiment with Vismodegib + Alpelisib (first compound 0.08 µM); 0.912 in the experiment with Vismodegib + Alpelisib (first compound 0.253 µM). The relative viability is 0.957 with Vismodegib + Alpelisib (first compound 0.8 µM); 0.868 with Vismodegib + Alpelisib (first compound 2.53 µM); 0.942 in the experiment with Vismodegib + Alpelisib (first compound 8 µM); 0.885 with Ruxolitinib + Alpelisib (first compound 0.08 µM); 0.904 with Ruxolitinib + Alpelisib (first compound 0.253 µM); 0.97 in the experiment with Ruxolitinib + Alpelisib (first compound 0.8 µM). Also, the relative viability with Ruxolitinib + Alpelisib (first compound 2.53 µM) worked out at 0.796; in the experiment with Ruxolitinib + Alpelisib (first compound 8 µM) it was 0.623.
